{
  "source": "patent US20220409633A1",
  "about": "“COMPOSITION COMPRISING BUDESONIDE FOR OPHTHALMIC USE” (NTC S.R.L., priority 2019, published 2022)",
  "key": {"[1]": {"settings": "cited from earlier work"}, "[2]": {"assay": "Cumulative distribution Q3% (HELOS Particle Size Analysis) of budesonide powder", "type": "physicochemical", "settings": "FIG. 4", "from_the_text": "FIGS. 3 and 4 respectively show a diagram of the Cumulative Distribution Q3% (HELOS Particle Size Analysis) with respect to the particle size in μm, and a table corresponding to said diagram of the Cumulative Distribution with standard deviation, according to a possible embodiment of the budesonide that can be used in this invention. […] In this range of there is half the total weight, almost as in the remaining […]; Said budesonide is obtained and supplied by the manufacturer already in this form according to an average size distribution shown in the diagram of FIG. 3, and in tabular form in FIG. 4, which show the cumulative distribution Q3% with respect to the particle size in μm."}, "[3]": {"assay": "Average size distribution of micronized budesonide powder by laser diffractometer", "type": "physicochemical", "settings": "FIG. 5", "from_the_text": "Preferably, said budesonide has an average size distribution shown in the diagram of FIG. 5, and in tabular form in Table A.1 below (in which the numerical values are expressed in μm).\nIn Table A.1, the parameters Dx(10), Dx(50) and Dx(90) respectively indicate that 10%, 50% and 90% by weight of the particles analysed have a dimensional distribution below the numerical values (expressed in μm) indicated in such Table.\nFor example, the average size distribution could be determined by means of a Spraytec laser diffractometer (Malvern Panalytics, UK), preferably using the instrumental operating parameters shown in Table A.2 below, where the parameters not specified in such table were maintained as per default specifications of the laser diffractometer."}},
  "data": [
    {"smiles": "CCCC1O[C@@H]2C[C@H]3[C@@H]4CCC5=CC(=O)C=C[C@]5(C)[C@H]4[C@@H](O)C[C@]3(C)[C@]2(C(=O)CO)O1", "note": "(stereo partly drawn) [budesonide]", "values": [
      {"measurement": "solubility in water", "setting": "[1]", "value": "not water-soluble"},
      {"measurement": "Cumulative Distribution Q3%", "setting": "[2]; x0/μm=2,50", "value": "90,32%"},
      {"measurement": "Cumulative Distribution Q3%", "setting": "[2]; x0/μm=3.75", "value": "99,01%"},
      {"measurement": "Dx(10)", "setting": "[3]; 10% by weight of particles below this size", "value": 1.10, "unit": "μm"},
      {"measurement": "Dx(50)", "setting": "[3]; 50% by weight of particles below this size", "value": 2.02, "unit": "μm"},
      {"measurement": "Dx(90)", "setting": "[3]; 90% by weight of particles below this size", "value": 3.68, "unit": "μm"}
    ]}
  ]
}
